Measurements taken from ChEMBL document CHEMBL3885881, “DrugMatrix”.

Species: Rattus norvegicus
Format: toxicity, organism-based, Sprague-Dawley
Conditions: in vivo, sc, 24 h, route mini-PUMP - SUBCUTANEOUS, time 1 day, vehicle 100 % SALINE
[1] = 0 mg/kg, tissue Blood, dose level Control
[2] = 0 mg/kg, tissue Plasma, dose level Control
[3] = […], tissue Blood, dose 0.77 mg/Kg, dose level High
[4] = […], tissue Plasma, dose 0.77 mg/Kg, dose level High

Description: DrugMatrix - Regimen: Single

For CNCC(O)c1ccc(O)c(O)c1 (configuration not stated) [RACEPINEPHRINE], the “ABSOLUTE EOSINOPHIL” value [1] was 26.17 CELLS/uL, the “ABSOLUTE LYMPHOCYTE” value [1] was 10985.83 CELLS/uL and the “ABSOLUTE MONOCYTE” value [1] was 234.5 CELLS/uL. The “ABSOLUTE SEGMENTED NEUTROPHIL” value [1] was 1753.5 CELLS/uL, the BASOPHIL [1] was 0% and the EOSINOPHIL [1] was 0.17%. The “ERYTHROCYTE COUNT” value [1] was 5.64 x10E6/uL, the HEMOGLOBIN [1] was 12.68 G/DL and the “LEUKOCYTE COUNT” value [1] was 13 x10E3/uL. The LYMPHOCYTE [1] was 84.5%, the “MEAN CORPUSCULAR HEMOGLOBIN” value [1] was 22.5 pg and the “MEAN CORPUSCULAR HEMOGLOBIN CONCENTRATION” value [1] was 36.78 G/DL. The “MEAN CORPUSCULAR VOLUME” value [1] was 61.18 fL, the NEUTROPHIL [1] was 13.5% and the “NUCLEATED RED BLOOD CELLS” value [1] was 0.17 /100WBC. The “PLATELET COUNT” value [1] was 679.17 x10E3/uL, the “ALANINE AMINOTRANSFERASE” value [2] was 42.67 u/L and the ALBUMIN [2] was 3.77 G/DL. For the same compound, the “ALKALINE PHOSPHATASE” value [2] was 291.17 u/L, the “ASPARTATE AMINOTRANSFERASE” value [2] was 74.5 u/L and the “BLOOD UREA NITROGEN” value [2] was 15.33 mg/dL. For the same compound, the “CARBON DIOXIDE” value [2] was 30 mmol/L, the CHLORIDE [2] was 100.83 MEQ/L and the CHOLESTEROL [2] was 65.33 mg/dL. The CREATININE [2] was 0.15 mg/dL, the “LACTATE DEHYDROGENASE” value [2] was 162.67 u/L and the LIPASE [2] was 8.5 u/L. It also gave a PHOSPHORUS [2] of 12.2 mg/dL, a POTASSIUM [2] of 5.73 MEQ/L and an SODIUM [2] of 144.7 MEQ/L. The “TOTAL BILIRUBIN” value [2] was 0.15 mg/dL, the “TOTAL PROTEIN” value [2] was 5.87 G/DL and the “URIC ACID” value [2] was 1.93 mg/dL. The “ABSOLUTE EOSINOPHIL” value [3] was 58.33 CELLS/uL, the “ABSOLUTE LYMPHOCYTE” value [3] was 10774 CELLS/uL and the “ABSOLUTE MONOCYTE” value [3] was 283.33 CELLS/uL. For the same compound, the “ABSOLUTE SEGMENTED NEUTROPHIL” value [3] was 3051 CELLS/uL, the BASOPHIL [3] was 0% and the “ERYTHROCYTE COUNT” value [3] was 5.86 x10E6/uL. The HEMOGLOBIN [3] was 12.93 G/DL, the “LEUKOCYTE COUNT” value [3] was 14.17 x10E3/uL and the LYMPHOCYTE [3] was 76.33%. The “MEAN CORPUSCULAR HEMOGLOBIN” value [3] was 22.1 pg, the “MEAN CORPUSCULAR HEMOGLOBIN CONCENTRATION” value [3] was 36.47 G/DL and the “MEAN CORPUSCULAR VOLUME” value [3] was 60.53 fL. For the same compound, the NEUTROPHIL [3] was 21.33%, the “NUCLEATED RED BLOOD CELLS” value [3] was 0.67 /100WBC and the “PLATELET COUNT” value [3] was 983 x10E3/uL. The ALBUMIN [4] was 4.03 G/DL, the “ALKALINE PHOSPHATASE” value [4] was 374 u/L and the “BLOOD UREA NITROGEN” value [4] was 11.67 mg/dL. It also gave a CHLORIDE [4] of 100.33 MEQ/L, a CHOLESTEROL [4] of 88.67 mg/dL and a CREATININE [4] of 0.15 mg/dL. For the same compound, the GLUCOSE [4] was 283.33 mg/dL, the “LACTATE DEHYDROGENASE” value [4] was 103.67 u/L and the LIPASE [4] was 9 u/L. It also gave a PHOSPHORUS [4] of 15.53 mg/dL, a POTASSIUM [4] of 5.99 MEQ/L and an SODIUM [4] of 145.87 MEQ/L. For the same compound, the “TOTAL BILIRUBIN” value [4] was 0.13 mg/dL and the “URIC ACID” value [4] was 3.3 mg/dL.
